From US9452177B2, “Vitamin D compounds and methods for reducing ocular hypertension (OHT)” (Wisconsin Alumni Research Foundation, priority 2008, dated 2016) come the findings set out here.

“Also recorded” adds a separate entry of the source.

Assay [1] has as its system genes known to be involved in the regulation of IOP. Kind of assay: Rat intestine and mouse calvarial cell microarrays (gene expression). As to the method:
Vitamin D-deficient rats were given one bolus intravenous dose of 730 ng of 1,25-(OH)2D3/kg of body weight in ethanol or ethanol vehicle (control). Rats were anesthetized with isofluorane and decapitated 1, 3, 6, 10 and 24 h after injection of the dose or vehicle. There were three rats in each group for each time point. Blood was collected at the same time for determination of changes in serum calcium concentration. For each rat, the first 15 cm of intestine (duodenum) was removed, slit longitudinally and scraped with a glass slide. The mucosa was placed in a vial with GTC extraction buffer supplemented with 2% of β-mercaptoethanol (PolyATtract System 1000, Promega Corp., Madison, Wis.), homogenized at high speed with PowerGen 700 (Fisher Scientific, Pittsburgh, Pa.), flash frozen in liquid N2 and stored at −80° C. Experiments were done in duplicate.
For each time point, Poly(A+) RNA was isolated from pooled homogenized mucosa of three 1,25-(OH)2D3 or three vehicle treated rats. The mRNA was isolated using the PolyATtract System 1000 (Promega Corp., Madison, Wis.). The mRNA was purified using an RNeasy kit (Qiagen, Chatsworth, Calif.). The quality, integrity and quantity of the Poly(A+) RNA were determined by agarose gel electrophoresis, UV absorption spectrophotometry and the use of Agilent Bioanalyser 2100 (Agilent Technologies, Palo Alto, Calif.).
Primary fetal mouse calvarial cells were isolated and cultured in αMEM containing 10% FBS as described [Shevde, 2002]. Cells were plated in the 2×6-well plates (5×10^5 cells/well) and cultured with medium changes performed on days 1 and 4. On day 4 cells on 1 plate were treated with 1,25(OH)2D3 (10 nM final concentration). Second plate was used as the control. After 24 h of incubation with 1,25(OH)2D3, cells were harvested and total RNA was isolated with Trizol reagent (Invitrogen Life Technologies, Carlsbad, Calif.). The mRNA was further purified using an RNeasy kit (Qiagen, Chatsworth, Calif.). The quality, integrity and quantity of the total RNA were assessed by agarose gel electrophoresis and UV absorption spectrophotometry. Experiments were done in triplicates. […]
The hybridization reaction and the automated hybridization procedure were performed by the Gene Expression Center at the Biotechnology Center at the University of Wisconsin-Madison as described (Kutuzova, 2004). Each probe was tested on an Affymetrix Test3 Array and the quality of the cDNA and cRNA was determined by a 3′/5′ ratio of housekeeping genes within the array (ubiquitin, rat glyceraldehyde 3-phosphate dehydrogenase, β-actin, and hexokinase). […] Expression data were analyzed using the Affymetrix Microarrray Suite software version 5.0 (MAS 5.0). […]

Another assay has as its system monkey eyes. Kind of assay: Outflow facility by two-level constant pressure perfusion of the anterior chamber. The following applies: for increase in outflow facilities, vitamin D treated eyes: combined n=8. It counts as in vivo, cynomolgus monkeys. As to the method:
Ocular normotensive adult cynomolgus monkeys, of either sex, weighing 3-7 kg were anesthetized with i.m. ketamine HCl (3-25 mg/kg, supplemented with 1-10 mg/kg) for IOP, topical drop administration and aqueous humor flow measurements. All monkeys were free of any ocular abnormalities according to slit lamp biomicroscopy at the time measurements were taken. For outflow facility measurements, animals were given intravenous sodium pentobarbital (15 mg/kg, supplemented with 5-10 mg/kg) following i.m. ketamine induction.
Outflow facility was determined in pentobarbital-anesthetized monkeys [Gabelt, 2004] by two-level constant pressure perfusion of the anterior chamber with Bárány's perfusand [Bárány, 1964] (n=8). Four monkeys (group A) received the single bolus injection of 1 μl of 1 μg vitamin D 1,25-dihydroxyvitamin D3 (1,25-(OH)2D3) into the anterior chamber of one eye (Treated eye) or 1 μl of propylene glycol into the anterior chamber of fellow eye (Control eye). Four monkeys (group B) were treated topically with 5 μg of vitamin D in 5 μl of propylene glycol or vehicle (5 μl of propylene glycol) twice daily for two days.
Following baseline outflow facility measurements on the third day, the fifth treatment was administered as a single bolus injection of 1 μl of 1 μg vitamin D 1,25-dihydroxyvitamin D3 (1,25-(OH)2D3) into the anterior chamber of one eye (Treated eye) or 1 μl of propylene glycol into the anterior chamber of fellow eye (Control eye). Following injections, the treatment bolus was allowed to wash in for 5 min with flow from the reservoirs. Then the contents of the anterior chamber were mixed by blowing cold air on the cornea to create convection. Reservoirs were closed for 75 minutes, then reopened and outflow facility measured for 60-90 minutes. Data were averaged for the entire 60-90 minute period and for 30-minute intervals and then were compared to baseline and to the vehicle treated eyes. Ratios were compared by the two-tailed paired t-test for ratios different from 1.0.
Baseline outflow facilities were studied in two groups (A and B) of monkeys (Materials and Methods). Group A (n=4) was treated with single bolus intracameral injection of 1 μg vitamin D (1,25-(OH)2D3) in 1 μl propylene glycol in one eye and 1 μl vehicle, propylene glycol in the control eye (Table 2, A). Group B (n=4) was treated topically with 5 μg of vitamin D in 5 μl of propylene glycol or vehicle (5 μl of propylene glycol) twice daily for two days. Then, following baseline outflow facility measurements on the third day, the fifth treatment was administered as a single bolus injection of 1 μl of 1 μg vitamin D 1,25-dihydroxyvitamin D3 (1,25-(OH)2D3) into the anterior chamber of one eye (Treated eye) or 1 μl of propylene glycol into the anterior chamber of fellow eye (Control eye).

The mark [2] stands for this setting: rat 730 ng/kg i.v., mouse calvarial cells 10 nM, 24 h.
Setting [3] is: Combined data for Groups A and B, n=8.
Where [4] appears, read: Group A, 1 μg intracameral, n=4.
Setting [5] is: Group B, 5 μg topical (4 treatments) then 1 μg intracameral, n=4.

Regarding `C=C1/C(=C\C=C2/CCC[C@]3(C)[C@@H]([C@H](C)CCCC(C)(C)O)CC[C@@H]23)C[C@@H](O)C[C@@H]1O` [1,25-(OH)2D3, 1α,25-dihydroxyvitamin D3], the “expression of vasoactive intestinal peptide, topoisomerase I, MMP2” value in assay [1] (data not shown) is on record as “decreased expression”. Moreover, the “expression of ACTG2, ATP1A1, AQP1, CEACAM, FN1, CD44 and TIMP3” value in assay [1] (setting [2]) was “Significantly down-regulated”. Further, in assay [1] (setting [2]), the “expression of PTGER4, MMP3, MMP11 and MMP13” value is “Significant increases”. The “mRNA expression for carbonic anhydrase I (CAI), angiotensin I converting enzyme (ACE) and actin alpha (ACTA1)” value in assay [1] (setting [2]) is reported as “strong reductions”. Also, the entries for the “Cumulative 90 min outflow facility, Treated eye after Vitamin D” value with monkey eyes (setting [3]), in the assay on monkey eyes (setting [4]) and with monkey eyes (setting [5]) were 0.44 ± 0.13 μl/min/mmHg, 0.37 ± 0.07 μl/min/mmHg and 0.51 ± 0.26 μl/min/mmHg, respectively. Also, the “Outflow facility Vitamin D/Baseline, Treated/Control” value in the assay on monkey eyes (setting [3]) is listed as 0.94 ± 0.11; in the assay with monkey eyes (setting [4]), 1.04 ± 0.13; with monkey eyes (setting [5]), 0.84 ± 0.18. The entries for the “Outflow facility ratio Treated/Control after Vitamin D” value in the assay with monkey eyes (setting [3]), with monkey eyes (setting [4]) and in the assay on monkey eyes (setting [5]) were 0.87 ± 0.16, 0.82 ± 0.20 and 0.91 ± 0.27, respectively. The “Outflow facility Vitamin D/Baseline, Treated eye” value was 1.59 ± 0.19* in the assay on monkey eyes (Combined data for Groups A and B, n=8, *p<0.05 vs 1.0); 1.80 ± 0.30 with monkey eyes (setting [4]); 1.39 ± 0.45 in the assay with monkey eyes (setting [5]). Also, the “increase in outflow facilities, vitamin D treated eyes” value worked out at 60% in the assay with monkey eyes (at 60 min, significant); 115% in the assay on monkey eyes (at 90 min, significant); 10% in the assay with monkey eyes (first 30 min after the bolus injection, non-significant). Further, in the assay with monkey eyes (at 90 min after the intracameral injections), the “increase in outflow facilities over baseline, both eyes” value is reported as “about 100%”. For the same compound, the “outflow facility, vitamin D versus vehicle treated eyes” value in the assay with monkey eyes (cumulative 90 min, groups A and B and combined) is “no significant differences were found neither between the vitamin D or vehicle treated eyes; also recorded: did not change either the aqueous humor flow or the outflow facilities”.
